Values quoted from earlier work in patent US20220117942A1, “COMBINATION THERAPY FOR THE TREATMENT OF PROSTATE CANCER” (Zenith Epigenetics Ltd., priority 2018, published 2022).

System: 2nd line mCRPC patients
Conditions: enzalutamide alone, comparison value

## CNC(=O)c1ccc(N2C(=S)N(c3ccc(C#N)c(C(F)(F)F)c3)C(=O)C2(C)C)cc1F [enzalutamide]
  expected rPFS: 24-28 weeks
